Legend:
[1] = test system: neuroblastoma cells expressing tau type IIA; assay: Oxidative stress (SIN-1) vulnerability, MTT reduction assay; type: cell-based, human; settings: cells expressing the tau protein vs non-expressing cells, SIN-1 0-3.3 mM, 24 hours
From the text: In the present example, the oxidative decomposition of 3-morpholinosydnonimine (SIN-1) was used which generates superoxide anions and nitric oxide, which react and thereby form peroxynitrite. This very reactive radical can further oxidize mainly cellular membrane systems. Persons skilled in art will be able to also apply another sources of oxidative stress to neuroblastoma cells in culture and will be able to obtain the same effect here described by the use on SIN-1.
The effect of vulnerability was tested as follows: • 1. SIN-1 was applied at various concentrations (0-3.32 mM) to human neuronal cell lines expressing tau type IIA protein SEQ ID NO 15 and SEQ ID NO 11, respectively. • 2. […] The EC50 values were compared for neuroblastoma cell lines in the presence or absence of diseased tau type IIA protein expression and the statistical significance of EC50 value differences was assessed by t-test. […]
After five day, SIN-1 was added in concentrations ranging from 0 to 3.3 mM and the plates were incubated for 24 hours. […] The absorbance at 540 nm with background correction at 690 nm was measured on ELISA reader and the background-subtracted values were used for EC50 calculation, as it is well known in the art. […]

[2] = test system: purified porcine brain tubulin; assay: Microtubule assembly assay (MAA) with tau type IA and type IB; type: biochemical; settings: tau 0.1 mg/ml, tubulin 1 mg/ml, 1 mM GTP, 37° C., 20 min
Procedure: The physiological function of healthy tau consists in stabilizing microtubules (MTs). This function can be measured by a microtubule assembly assay (MAA). In this examples, the MAA reactions were carried out using three types of tau molecules: normal healthy human tau, recombinant forms of tau type IA (SEQ ID NO: 1) and tau type IB (SEQ ID NO: 4). Normal human tau, tau type IA and type IB were assayed individually in separate reactions. Single preparations of tau at 0.1 mg/ml were mixed with purified porcine brain tubulin at a final concentration of 1 mg/ml and 1 mM GTP, all materials in polymerisation buffer (100 mM PIPES, pH 6.9, 1 mM MgSO4, 2 mM EGTA). Tau was added last to initiate the promotion of MT assembly. After gentle and rapid mixing, the samples were pipetted into quartz microcuvettes and equilibrated at 37° C. in a thermostatically controlled spectrophotometer (Beckman Coulter DU640). The turbidity was continuously monitored at 340 nm in 10 s intervals for a period of 20 min.

Human tubulin = assay: Inhibition of microtubule assembly by tau type IA and IB (tubulin preincubated, then normal human tau); type: biochemical; settings: tubulin preincubated 1 hr at 37° C. with 0.2 mg/ml type IA or IB; normal human tau 0.1 mg/ml; 340 nm, 5 min
Procedure: Both tau type IA and IB molecules lack functional activity when applied in a the MT assembly assay (MAA). […] For inhibition of microtubule assembly, recombinant forms of tau type IA (SEQ ID NO:1) and type IB (SEQ ID NO:4) were used. The assembly-inhibition reactions were carried out separately using type IA and type IB proteins. Human tubulin (2 mg/ml) was mixed with either type IA molecules (0.2 mg/ml) or type IB molecules (0.2 mg/ml). The mixtures were incubated 1 hr at 37° C. with gently shaking. To the mixtures kept on ice normal human tau (0.1 mg/ml) and GTP (final concentration of tubulin in the mixture is 1 mg/ml and GTP 1 mM) were added in polymerization buffer (100 mM PIPES, pH 6.9, 1 mM MgSO4, 2 mM EGTA). After gentle and rapid mixing, the samples were pipetted into quartz microcuvettes and equilibrated at 37° C. in a thermostatically controlled spectrophotometer (Beckman Coulter DU640). The turbidity changes were measured at 340 nm in 10 sec intervals over a period of 5 min.

tau monoclonal antibody = assay: Competitive ELISA, affinity of monoclonal antibody to tau type IA and deletion mutants; type: binding; settings: read-out: apparent affinity (antigen concentration needed for 50% competition with prototype tau type IA)
Procedure: FIG. 5: Affinity of monoclonal antibody to diseased tau type IA protein and its deletion mutants. Apparent affinity of monoclonal antibody to diseased tau type IA protein and its deletion mutants. In the first column are listed: the ‘prototype’ tau type IA protein (SEQ ID NO 1) and respective deletion mutants. In the middle column are indicated epitopes of the present invention. Apparent affinities stated in the last column were measured by competitive ELISA, and shown as the concentrations of corresponding antigen needed for 50% competition with the prototype tau type IA protein.
The significance of the ‘conformational region’ in tau type IA (segment A) or its parts was determined by sequential deletion either of whole conformation region (segment A) or its individual parts called epitopes and designated A1-A6. Since the conformation of type IA molecules strongly correlates with their function, the contribution of each epitope (A1-A6) to the overall conformation of the ‘segment A’ was measured on the basis of its reactivity when using a tau monoclonal antibody (FIG. 5).

tubulin [3] = assay: Inhibitory effect of AD-brain derived and recombinant tau type IA on normal healthy tau in microtubule assembly assay; type: biochemical; settings: 0.2 mg/ml type IA or IB, healthy tau 0.1 mg/ml, tubulin 1 mg/ml, preincubation 1 hr at 37° C., 340 nm, 5 min
From the text: AD-brain extracts as well as recombinant molecules of tau type IA are capable to inhibit microtubule assembly promotion when using natural healthy tau isoforms. For these experiments healthy human tau was isolated from brains of age matched controls and tau type IA was isolated from brains of AD patients (see Example 6, FIG. 6, fraction #19). Recombinant tau type IA (SEQ ID NO: 1) and type IB (SEQ ID NO:4, negative control) were produced and purified as shown in Example 6. In these experiments, brain-derived healthy tau isoforms (0.1 mg/ml), AD-brain derived or recombinant type IA tau or type IB (0.2 mg/ml) were mixed with tubulin. Each combination was assayed separately. The test mixtures were incubated 1 hr at 37° C. in a water bath with gently shaking. To the mixture kept on ice was added GTP and/or normal tau (final concentration of tubulin is 1 mg/ml and GTP 1 mM) all reagencies in polymerisation buffer (100 mM PIPES, pH 6.9, 1 mM MgSO4, 2 mM EGTA). After gentle and rapid mixing, the samples were pipetted into quartz microcuvettes and equilibrated at 37° C. in a thermostatically controlled spectrophotometer (Beckman Coulter DU640). The turbidity changes were measured at 340 nm in 10 s intervals for a period of 5 min. […] Curve 1 (FIG. 12) represents microtubule assembly promoted by normal tau.

tubulin [4] = assay: Microtubule assembly with tau type IIA and IIB; type: biochemical; settings: tau 0.1 mg/ml, tubulin 1 mg/ml, GTP 1 mM, 37° C., 340 nm, 5 min
Procedure: The microtubule assembly reactions were carried out using three types of molecules: natural healthy human tau isoforms, Alz. tau type IIA (SEQ ID NO: 12) and tau type JIB (SEQ ID NO: 19). Three separate reactions were performed, each with single preparation of respective tau (healthy tau, recombinant tau type IIA or type IIB). Individual tau preparations at 0.1 mg/ml were mixed with tubulin and GTP (final concentration of tubulin is 1 mg/ml and GTP 1 mM), all reagencies in polymerisation buffer (100 mM PIPES, pH 6.9, 1 mM MgSO4, 2 mM EGTA). After gentle and rapid mixing, the samples were pipetted into quartz microcuvettes and equilibrated at 37° C. in a thermostatically controlled spectrophotometer (Beckman Coulter DU640). The turbidity changes were measured at 340 nm in 10 s intervals for a period of 5 min.

microtubules = assay: Electron microscopy of microtubules formed with tau; type: biochemical
From the text: However, Alzheimer tau type II produces pathological microtubules with typical pattern (see FIG. 28C).

Substance: SEQ ID NO: 18: type IIA double truncated tau, 69-332, R3
- decrease of resistance of neuroblastoma cells to oxidative stress (EC50 of SIN-1) [1]: 50%

Substance: SEQ ID NO: 1: type IA N- and C-terminally double truncated tau, residues 239-333 of four repeat tau43
- microtubule assembly promotion (turbidity at 340 nm) [2]: lacked any MT assembly promotion
- inhibition of microtubule assembly promoted by normal human tau (Human tubulin): abolished microtubule assembly
- IC50 (tau monoclonal antibody): 10 nM
- inhibition of the capacity of normal tau to promote microtubule assembly (tubulin [3]): inhibit the capacity of normal tau to promote microtubule assembly

Substance: normal healthy tau: tau protein derived from healthy brains [reference compound]
- microtubule assembly promotion (turbidity at 340 nm) [2]: microtubule assembly promotion capacity

Substance: SEQ ID NO: 12: type IIA double truncated tau, 93-333, R4
- promotion of microtubule assembly compared to healthy tau (tubulin [4]): extremely high (threefold) promotion
- decrease of resistance of neuroblastoma cells to oxidative stress (EC50 of SIN-1) [1]: 50%

Substance: SEQ ID NO: 19: type IIB double truncated tau, 6-378, R4
- promotion of microtubule assembly compared to healthy tau (tubulin [4]): promote microtubule assembly only to the level seen with healthy tau

Substance: SEQ ID NO: 4: type IB double truncated tau, 239-326, R4
- microtubule assembly promotion (turbidity at 340 nm) [2]: lacked any MT assembly promotion
- inhibition of microtubule assembly promoted by normal human tau (Human tubulin): does not inhibit the microtubule assembly capacity of normal tau
- inhibition of the capacity of normal tau to promote microtubule assembly (tubulin [3]): not able to inhibit

Substance: tau 43: shortest four repeat tau isoform, 383 amino acids, missing exons 2 and 3
- type of microtubules formed (electron microscopy) (microtubules): forms typical microtubules
